Here are results for 2 molecules from patent US20240269157A1, “COMPOSITIONS AND METHODS FOR OVERCOMING MICROENVIRONMENT-MEDIATED RESISTANCE VIA E-SELECTIN TARGETING” (GLYCOMIMETICS, INC., priority 2021, published 2024).

Assay [1] deals with HUVEC co-cultured AML. The assay can be described thus: Cell cycle regulating protein expression in HUVEC co-cultured AML. The class given is cell-based, human.
Assay [2] relates to PDX AML (Flt3-ITD and WT1 mutations, sorafenib-resistant). Put plainly: PDX model (Flt3-ITD and WT1 mutations, sorafenib-resistant), CyTOF after 2 days. The class given is in vivo, mice. On the procedure: To delineate the mechanism of E-selectin at the onset of drug-mediated changes in AML signaling signatures, another PDX model was employed (Flt3-ITD and WT1 mutations, sorafenib-resistant).
PDX mice with advanced AML (more than 20% human AML cells circulation in peripheral blood) were administered vehicle control, venetoclax (25 mg/kg)/HMA (5.5 mg/kg), Compound A (200 mg/kg), or a combination therapy for 2 days. After 2 days of bolus drug administration, mice were sacrificed and subjected to CyTOF analysis (FIGS. 9A-C). Single cell proteomics analysis by CyTOF determined that combinatorial treatment of Compound A with venetoclax/HMA diminished levels of Ki67, IDU, and pRb compared to vehicle control or venetoclax/HMA alone, resulting in decreased proliferation of AML blasts.

The subject of assay [3] is KG1 AML tumor cells. Put plainly: KG1 AML mouse model survival. The format is in vivo, NSG mice. As to conditions: for median survival time (MST): Compound A 40 mg/kg i.p. qdx14, 5-azacitidine 5 mg/kg i.p. q3dx5. On the procedure: A KG1 AML mouse model was also employed to determine whether the E-selectin antagonist Compound A could enhance the anti-tumor effect of 5-azacitidine. Female NSG mice (10 per cohort, six weeks of age) received i.v. injections of 5×10^6 KG1 AML tumor cells per mouse. Beginning 7 days post injection, mice were randomized into four cohorts and treated with either saline (i.p. (intraperitoneal), qdx14 (once daily for 14 days)), Compound A (40 mg/kg i.p. qdx14), 5-azacitidine (5 mg/kg i.p. q3dx5), or a combination of Compound A and 5-azacitidine. The efficacies of the treatments on survival were determined by the Kaplan-Meier estimator and log-rank statistics were used to test for significant differences in survival (FIG. 11). The median survival time (MST) of mice treated with 5-azacitidine was 88 days and statistically different from that of mice treated with saline (MST=69.5 days) or Compound A alone (MST=69 days). […] At study conclusion, (day 104 post tumor injection) 20% of mice treated with 5-azacitidine remained alive.

The target in assay [4] is T1, recombinant human E-selectin-Fc chimera (Homo sapiens, UniProt P16581).
T1 construct: purchased R&D Systems 724-ES
T1 sequence (P16581 with tags, fused parts or gaps limits assumed): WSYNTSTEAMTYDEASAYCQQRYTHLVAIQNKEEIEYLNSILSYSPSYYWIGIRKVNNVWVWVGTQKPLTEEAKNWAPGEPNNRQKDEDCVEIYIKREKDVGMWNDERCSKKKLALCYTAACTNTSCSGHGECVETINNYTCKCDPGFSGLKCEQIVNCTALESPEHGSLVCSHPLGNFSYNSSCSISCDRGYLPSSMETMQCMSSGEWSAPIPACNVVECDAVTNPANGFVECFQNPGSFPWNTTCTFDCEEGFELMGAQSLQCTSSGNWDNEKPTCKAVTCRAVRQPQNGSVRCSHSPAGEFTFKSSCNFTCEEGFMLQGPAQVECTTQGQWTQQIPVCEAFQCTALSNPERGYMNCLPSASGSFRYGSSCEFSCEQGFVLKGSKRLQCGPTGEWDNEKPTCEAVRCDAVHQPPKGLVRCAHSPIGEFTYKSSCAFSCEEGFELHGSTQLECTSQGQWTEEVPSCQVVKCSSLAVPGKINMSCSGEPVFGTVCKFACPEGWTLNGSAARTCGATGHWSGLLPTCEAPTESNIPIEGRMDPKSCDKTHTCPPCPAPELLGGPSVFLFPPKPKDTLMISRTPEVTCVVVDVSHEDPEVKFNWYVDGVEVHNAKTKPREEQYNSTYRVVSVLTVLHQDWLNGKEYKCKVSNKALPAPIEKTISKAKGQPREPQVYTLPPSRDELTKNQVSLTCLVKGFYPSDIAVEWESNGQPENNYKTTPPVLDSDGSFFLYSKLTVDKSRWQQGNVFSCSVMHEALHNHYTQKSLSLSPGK
The assay can be described thus: Adhesion of KG1 AML cells to E-selectin in vitro. The format is cell-based. On the procedure:
To further explore this hypothesis, the ability of Compound A to disrupt adhesion of KG1 AML cells to E-selectin was assessed using an in vitro assay. Recombinant human E-selectin-Fc chimera was purchased from R&D Systems (724-ES). KG1 AML cell line was purchased from ATCC (CRL-8031) and cultured in RPMI-1640 medium supplemented with 10% fetal bovine serum (FBS). Costar 96-well polystyrene medium binding assay plates were purchased from Corning (9017). 5-azacitidine (5-AZA) was purchased from Sigma-Aldrich (A2386). Calcein AM was purchased from Molecular Probes (C3100MP). FITC-conjugated antibody reactive with cutaneous lymphocyte antigen (HECA-452-FITC) was purchased from BD Pharmingen (555947).
The wells of a 96-well polystyrene plate were coated with 100 μL of 2 μg/mL recombinant human E-selectin-Fc chimera for 2 hours at 37° C., and then washed three times with Hank's Balanced Saline Solution (HBSS). KG1 cells were fluorescently labeled in culture medium with 3 μM Calcein AM for 60 minutes at 37° C., pelleted by centrifugation at 250×g for 10 minutes, then resuspended in HBSS to 2.5×10^5 cells per mL. Next, 2.5×10^4 cells were added to each well, and the cells were allowed to adhere for 45 minutes at room temperature. In some cases, cells were treated daily with 100 nM 5-azacitidine for 96 hours prior to labeling with Calcein AM and adhesion to E-selectin. Appropriate wells received 1 μL of 10 mM Compound A (final concentration in well: 100 μM) and after 30 minutes the wells were observed by fluorescence microscopy and pre-wash fluorescence measurements were taken using a FlexStation plate reader (excitation 485 nm, emission 538 nm, cutoff 530 nm). Subsequently, the wells were washed gently three times with HBSS and observations by fluorescence microscopy and fluorescence readings were repeated.

Assay [5] relates to luc-MV4.11 cells. The assay can be described thus: MV4.11 AML model survival. The class given is in vivo, NSG mice. As to conditions: 40 mg/kg Compound A i.p., 100 mg/kg venetoclax oral, 14 days once daily. On the procedure: To evaluate the efficacy of targeting E-selectin with Compound A in combination with venetoclax, an in vivo MV4.11 AML model was employed (FIG. 16).
luc-MV4.11 cells (5×10^6 cells/mouse) were transplanted into NSG mice. Mice were divided into four groups: vehicle treatment only; 40 mg/kg of Compound A (intraperitoneal, 14 day once daily); 100 mg/kg venetoclax (oral, 14 days once daily), and a combination of 40 mg/kg Compound A and 100 mg/kg venetoclax. Drug treatment was initiated on day 10 post-transplantation.

Assay [6] concerns FUT7 promoter. Put plainly: Targeted Next-Gen bisulfite sequencing of the FUT7 promoter region in KG1 cells. The format is cell-based, human. As to conditions: dose and time dependent. On the procedure:
To test whether the increased expression of FUT7 mRNA in KG1 cells treated with 5-AZA could be due to hypomethylation of the FUT7 promoter, targeted Next-Gen bisulfite sequencing of the FUT7 promoter region was performed. The methylation status of 101 CpG sites surrounding the transcription start site was determined. […] Cells were collected after 96 hours of treatment and cell pellets were prepared. Extracted DNA samples (500 ng) were bisulfite modified using the EZ-96 DNA Methylation-Direct Kit™ (ZymoResearch; Irvine, CA; Catalog No. D5023) per the manufacturer's protocol with minor modification. The bisulfite modified DNA samples were eluted using M-elution buffer in 46 μL. Following DNA extraction and bisulfite modification, 26 regions surrounding the transcription start site were evaluated by PCR/NGS to assess the methylation status of 101 CpG sites. All bisulfite modified DNA samples were amplified using separate multiplex or simplex PCRs. PCRs included 0.5 units of HotStarTaq (Qiagen; Hilden, Germany; Catalog No. 203205), 0.2 μM primers, and 3 μL of bisulfite-treated DNA in a 20 μL reaction.

Turning to `CCC1CC(C(=O)NCCNC(=O)CCOCCOCCOCCOCCOCCOCCOCCOCCOCCOCCOCCOC)C[C@@H](O[C@@H]2OC(CO)[C@H](O)C(O[C@@H](CC3CCCCC3)C(=O)O)C2NC(C)=O)[C@@H]1OC1O[C@@H](C)[C@H](O)C(O)[C@@H]1O` (stereo partly shown) [Compound A], in assay [1], the “expression of cell cycle regulating proteins including CDK4, CDK6, CyclinD1, and CyclinD2” value is “increased”. Moreover, the “oncogenic signaling pathways MAPK, p-S6, and STAT3” value in assay [2] (Compound A added to venetoclax/HMA) is given as “inhibited”. In assay [2] (mouse, in vivo), the “activation of PI3K and AKT in AML blasts and BM CD31+EC cells” value was “reduced”; the “eNOS phosphorylation in EC” value is recorded as “decreased”. In addition, the outcome of mice in assay [3] (All mice treated) was “succumbed to progressive tumor growth”. For the same molecule, the “median survival time (MST)” value in assay [3] is recorded as 69 days. The “fluorescence units after treatment of previously attached cells” value in assay [4] (100 μM Compound A, 30 minutes, p=0.001) is recorded as 55.2 fluorescence units. The “median survival time (MST)” value in assay [5] came to 39 days.
With `Nc1ncn([C@@H]2O[C@H](CO)[C@@H](O)[C@H]2O)c(=O)n1` [5-azacitidine], in assay [3], the “median survival time (MST)” value is given as 88 days. Moreover, the “mice remaining alive at study conclusion” value in assay [3] (day 104 post tumor injection) came out at 20%. For the same molecule, in assay [4] (100 nM 5-AZA 96 hours vs not treated), the “increase in adhesion to E-selectin” value came out at 57%. For the same molecule, the “fluorescence units of adhered cells” value in assay [4] (KG1 cells treated for 96 hours with 100 nM 5-AZA) came out at 560.6 fluorescence units. For the same molecule, the “methylation of CpG sites of the FUT7 promoter region” value in assay [6] is “demethylation”.
